For assay [1], the target named is T1, Grb2 (Homo sapiens, UniProt P62993). The assay can be described thus: ELISA competition test (Grb2/biotin-Aha-PSpYVNVQN displacement). The following applies: displacement of GST-Grb2 (40 ng/ml) from fixed peptide biotin-Aha-PSpYVNVQN (Shc tyrosine 317). Type of assay: binding. How it is done:
Plates pre-treated with streptavidine (Boehringer) are incubated overnight at 4° C. with 100 μl of a solution of peptide biotin-Aha-PSpYVNVQN (Aha: 6-amino-hexanoic acid) (100 nM solution in TBS buffer Tris 100 mM, NaCl 50 mM, pH 7.5) per well. The non-specific binding is then blocked by incubating for 4 hours with the same buffer containing 3% of skimmed milk ([…]). The products to be tested are distributed among the wells at the desired dilution in the abovementioned buffer containing 3% of skimmed milk and 40 ng/ml of GST-Grb2 (100 μl per well). After one night's incubation, the plates are carefully rinsed 4 times using TBS-milk-0.05% tween 20, then incubated for 2 hours at 37° C., in the presence of 100 μl per well of anti-GST antibody (transduction, dilution 1/500 in TBS-milk-0.05% tween 20). The plates are then carefully rinsed 4 times using TBS-milk-0.05% tween 20, then incubated for 45 minutes at 37° C. in the presence of 100 µl per well of anti-mouse antibody coupled with peroxidase (Amersham, 1/1000 dilution in TBS-milk-0.05% tween 20). The plates are carefully rinsed using TBS-milk-0.05% tween 20, then incubated in the presence of 200 μl per well of TMB developing solution (Interchim), until a sufficient blue coloration has developed. The reaction is then stopped by adding 100 μl of 10% (VN) sulphuric acid per well. The reading is taken at 550 nm. The value read off for each well is then reduced by the control value of an equivalent well with no fixed peptide biotin-Aha-PSpYVNVQN then treated, like its homologue, with fixed peptide. The data is then processed using “Origin 40” software to obtain the 50 inhibitory concentrations.
(In general: In an ELISA, binding on a coated surface is turned into a signal by an enzyme label.)

Assay [2] has as its target T1, Grb2. The assay can be described thus: Affinity for Grb2 measured by fluorescence. Format: binding. The conditions noted are these: 25° C., 50 mM HEPES, 1 mM DTT, pH 7.5, emission 345 nm, excitation 292 nm, read-out: Diss. const. fluo Kd. From the text:
They are expressed therein as the dissociation constant Kd.

Where a SMILES comes first, the peptide text is derived from it. [ ]: non-standard residue; d: D form. pY = N[C@@H](Cc1ccc(OP(=O)(O)O)cc1)C(=O)O

T1 sequence (P62993 whole entry, species assumed): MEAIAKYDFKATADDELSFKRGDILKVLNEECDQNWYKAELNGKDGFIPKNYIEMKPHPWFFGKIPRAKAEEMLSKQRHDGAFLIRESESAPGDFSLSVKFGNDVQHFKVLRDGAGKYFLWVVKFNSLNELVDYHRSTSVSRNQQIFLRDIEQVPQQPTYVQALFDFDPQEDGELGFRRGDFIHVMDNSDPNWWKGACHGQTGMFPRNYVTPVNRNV

As a reminder, the IC50 is the midpoint of a concentration-inhibition curve. Higher therefore signals weaker potency. As for `CC(C)[C@H](NC(=O)[C@H](CC(N)=O)NC(=O)[C@@H](NC(=O)[C@H](Cc1ccc(OP(=O)(O)O)cc1)NC(=O)[C@H](CO)NC(=O)[C@@H]1CCCN1)C(C)C)C(=O)N[C@@H](CCC(N)=O)C(=O)N[C@@H](CC(N)=O)C(=O)O` [PSpYVNVQN (Shc 317), reference compound] (H-PS[pY]VNVQN-OH), the concentration for half-maximal inhibition (IC50) at Grb2 [1] was found to be 0.071 µM.
In the case of `C[C@@](Cc1ccc(OP(=O)(O)O)cc1)(NC(=O)[C@H](Cc1ccc(CP(=O)(O)O)cc1)NC(=O)OCc1cccc(N)c1)C(=O)N[C@@H](CC(N)=O)C(N)=O` [mAZ-Pmp-(αMe)pTyr-Asn-NH2, mAZ-Pmp-(α-Me) pTyr-Asn-NH2], at Grb2 [1], the IC50 was 0.042 µM.
`CC(Cc1ccc(C(F)(F)P(=O)(O)O)cc1)(NC(=O)[C@H](Cc1ccc(OP(=O)(O)O)cc1)NC(=O)OCc1cccc(N)c1)C(=O)N[C@@H](CC(N)=O)C(N)=O` (stereo partly drawn) [mAZ-pTyr-(αMe)F2Pmp-Asn-NH2, mAZ-pTyr-(D,L)(α-Me)F2Pmp-Asn-NH2] yielded an IC50 on Grb2 [1] of 0.064 µM.
What is called Kd is a measure of binding affinity in units of concentration. Regarding `C[C@@](Cc1ccc(CC(=O)O)cc1)(NC(=O)[C@H](Cc1ccc(OP(=O)(O)O)cc1)NC(=O)OCc1cccc(N)c1)C(=O)N[C@@H](CC(N)=O)C(N)=O` [mAZ-pTyr-(αMe)Phe(CH2—COOH)-Asn-NH2, mAZ-pTyr-(αMe)Phe(4-CH2CO2H)-Asn-NH2], the Kd at Grb2 [2] is 0.06 µM. The IC50 at Grb2 [1] is 0.198 µM.
The matching figures for `C[C@@](Cc1ccc(C(=O)O)cc1)(NC(=O)[C@H](Cc1ccc(OP(=O)(O)O)cc1)NC(=O)OCc1cccc(N)c1)C(=O)N[C@@H](CC(N)=O)C(N)=O` [mAZ-pTyr-(αMe)Phe(COOH)-Asn-NH2, mAZ-pTyr-(αMe)Phe(4-CO2H)-Asn-NH2]: 0.045 µM and 0.153 µM.
Regarding `CC(Cc1ccc(CP(=O)(O)O)cc1)(NC(=O)[C@H](Cc1ccc(OP(=O)(O)O)cc1)NC(=O)OCc1cccc(N)c1)C(=O)N[C@@H](CC(N)=O)C(N)=O` (stereo partly drawn) [mAZ-pTyr-(αMe)Pmp-Asn-NH2, mAZ-pTyr-(D,L)(αMe)Pmp-Asn-NH2], the Kd at Grb2 [2] is 0.07 µM. On Grb2 [1], this compound gave an IC50 of 0.266 µM.
Regarding `CC(Cc1ccc(P(=O)(O)O)cc1)(NC(=O)[C@H](Cc1ccc(OP(=O)(O)O)cc1)NC(=O)OCc1cccc(N)c1)C(=O)N[C@@H](CC(N)=O)C(N)=O` (stereo partly drawn) [mAZ-pTyr-(αMe)Ppp-Asn-NH2 (D or L)], the dissociation constant (Kd) on Grb2 [2] was determined as 0.0045 µM.
As to `C[C@@](Cc1ccc(O)cc1)(NC(=O)[C@H](Cc1ccc(OP(=O)(O)O)cc1)NC(=O)OCc1cccc(N)c1)C(=O)N[C@@H](CC(N)=O)C(N)=O` [mAZ-pTyr-(αMe)Tyr-Asn-NH2, mAZ-pTyr-(α-Me)Tyr-Asn-NH2, reference compound], the Kd on Grb2 [2] turned out to be 0.25 µM. In addition, the concentration for half-maximal inhibition (IC50) on Grb2 [1] is 1.1 µM.
`C[C@@](Cc1ccc(OP(=O)(O)O)cc1)(NC(=O)[C@H](Cc1ccc(OP(=O)(O)O)cc1)NC(=O)OCc1cccc(N)c1)C(=O)N[C@@H](CC(N)=O)C(N)=O` [mAZ-pTyr-(αMe)pTyr-Asn-NH2, mAZ-pTyr-(α-Me)pTyr-Asn-NH2]: the Kd at Grb2 [2] was 0.003 µM. The compound further came in with an IC50 on Grb2 [1] of 0.011 µM.
In the case of `NC(=O)C[C@H](NC(=O)C1(NC(=O)[C@H](Cc2ccc(OP(=O)(O)O)cc2)NC(=O)OCc2cccc(N)c2)CCCCC1)C(N)=O` [mAZ-pTyr-Acac-Asn-NH2, reference compound], at Grb2 [2], the Kd is 0.03 µM. The same compound came in with a half-maximal inhibitory concentration (IC50) at Grb2 [1] of 0.12 µM.
On to `NC(=O)C[C@H](NC(=O)[C@H](Cc1ccc(O)cc1)NC(=O)[C@H](Cc1ccc(OP(=O)(O)O)cc1)NC(=O)OCc1cccc(N)c1)C(N)=O` [mAZ-pTyr-Tyr-Asn-NH2, reference compound], for which the dissociation constant (Kd) on Grb2 [2] was 0.155 µM. At Grb2 [1], this compound came in with an IC50 of 0.497 µM.
With `NC(=O)C[C@H](NC(=O)[C@H](Cc1ccc(OP(=O)(O)O)cc1)NC(=O)[C@H](Cc1ccc(OP(=O)(O)O)cc1)NC(=O)OCc1cccc(N)c1)C(N)=O` [mAZ-pTyr-pTyr-Asn-NH2, reference compound], the Kd at Grb2 [2] worked out at 0.06 µM. In addition, the IC50 on Grb2 [1] amounted to 0.235 µM.
